Test results from patent publication US10065963B2 (Incyte Corporation, priority 2015, dated 2018).
Counter-ions that a name gives are not always drawn. Like-named read-outs stand apart in the source and are kept apart here.

Key:
[1] = target: PI3Kγ (p110γ) Recombinant Human Protein (Homo sapiens (Human), UniProt P48736); assay: PI3K-γ scintillation proximity assay; type: biochemical; conditions: 2 μM ATP, 20 μM PIP2
[2] = target: PI3Kδ (p110δ/p85α) Recombinant Human Protein (Homo sapiens (Human), UniProt O00329); assay: PI3Kδ scintillation proximity assay; type: biochemical; conditions: 2 μM ATP, 20 μM PIP2
Chain of PI3Kδ (p110δ/p85α) Recombinant Human Protein (O00329 whole entry): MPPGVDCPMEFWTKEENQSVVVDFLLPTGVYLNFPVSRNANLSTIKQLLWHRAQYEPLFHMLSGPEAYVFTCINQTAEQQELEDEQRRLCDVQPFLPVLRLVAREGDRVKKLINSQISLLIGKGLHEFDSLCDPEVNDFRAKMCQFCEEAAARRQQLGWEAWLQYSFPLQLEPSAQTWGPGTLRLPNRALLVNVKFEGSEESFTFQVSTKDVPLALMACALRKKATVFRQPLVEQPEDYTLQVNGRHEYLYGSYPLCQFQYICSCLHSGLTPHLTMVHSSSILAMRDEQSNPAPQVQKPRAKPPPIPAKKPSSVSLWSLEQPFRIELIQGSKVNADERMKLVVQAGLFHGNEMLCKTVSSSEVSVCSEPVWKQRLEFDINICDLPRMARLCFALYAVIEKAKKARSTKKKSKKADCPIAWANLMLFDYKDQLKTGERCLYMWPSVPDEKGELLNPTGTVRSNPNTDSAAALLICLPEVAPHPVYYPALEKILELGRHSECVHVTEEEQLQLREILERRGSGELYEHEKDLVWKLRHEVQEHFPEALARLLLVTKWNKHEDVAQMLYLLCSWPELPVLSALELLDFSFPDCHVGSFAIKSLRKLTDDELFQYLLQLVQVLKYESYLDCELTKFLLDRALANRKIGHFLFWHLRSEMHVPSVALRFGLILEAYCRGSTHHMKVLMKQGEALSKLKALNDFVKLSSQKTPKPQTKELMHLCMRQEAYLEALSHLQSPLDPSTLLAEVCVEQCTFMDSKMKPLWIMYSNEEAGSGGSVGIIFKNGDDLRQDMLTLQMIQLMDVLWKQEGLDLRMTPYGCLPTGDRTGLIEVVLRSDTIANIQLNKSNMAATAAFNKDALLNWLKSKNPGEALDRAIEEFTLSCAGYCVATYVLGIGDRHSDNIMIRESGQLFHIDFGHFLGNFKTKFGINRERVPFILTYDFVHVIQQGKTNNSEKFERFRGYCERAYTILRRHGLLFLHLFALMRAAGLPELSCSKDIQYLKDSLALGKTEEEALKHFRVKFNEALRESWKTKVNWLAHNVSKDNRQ
Chain of PI3Kδ (p110δ/p85α) Recombinant Human Protein (P27986 whole entry partner): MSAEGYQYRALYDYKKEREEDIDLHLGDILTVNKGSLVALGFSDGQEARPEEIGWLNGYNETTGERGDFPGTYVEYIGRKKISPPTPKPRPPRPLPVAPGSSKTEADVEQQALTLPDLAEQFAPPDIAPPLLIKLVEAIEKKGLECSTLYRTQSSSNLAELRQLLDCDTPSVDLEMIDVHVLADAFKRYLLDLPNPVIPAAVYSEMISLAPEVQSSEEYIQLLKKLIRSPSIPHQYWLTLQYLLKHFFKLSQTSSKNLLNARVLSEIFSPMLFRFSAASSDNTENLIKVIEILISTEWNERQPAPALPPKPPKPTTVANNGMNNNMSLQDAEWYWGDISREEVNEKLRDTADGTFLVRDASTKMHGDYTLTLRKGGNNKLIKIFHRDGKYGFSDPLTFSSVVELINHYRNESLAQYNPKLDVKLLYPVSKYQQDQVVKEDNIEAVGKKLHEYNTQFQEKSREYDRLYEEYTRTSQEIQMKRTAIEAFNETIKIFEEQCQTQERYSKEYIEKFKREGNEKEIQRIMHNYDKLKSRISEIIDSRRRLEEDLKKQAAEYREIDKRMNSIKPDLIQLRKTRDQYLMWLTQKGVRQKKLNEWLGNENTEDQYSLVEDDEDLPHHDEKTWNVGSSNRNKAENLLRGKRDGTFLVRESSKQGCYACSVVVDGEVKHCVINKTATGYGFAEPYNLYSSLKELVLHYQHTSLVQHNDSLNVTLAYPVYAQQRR

[3] = tested on: Phosphorylated Ribosomal Protein S6 (RPS6) in THP-1 cells; assay: THP-1 RPS6 ELISA assay; type: cell-based, human; conditions: 10 nM MCP-1, read-out: PI3Kγ_THP1_RPS6_ELISA IC50
[4] = Homo sapiens, THP-1, THP-1 cells

Chain of PI3Kγ (p110γ) Recombinant Human Protein (P48736 whole entry): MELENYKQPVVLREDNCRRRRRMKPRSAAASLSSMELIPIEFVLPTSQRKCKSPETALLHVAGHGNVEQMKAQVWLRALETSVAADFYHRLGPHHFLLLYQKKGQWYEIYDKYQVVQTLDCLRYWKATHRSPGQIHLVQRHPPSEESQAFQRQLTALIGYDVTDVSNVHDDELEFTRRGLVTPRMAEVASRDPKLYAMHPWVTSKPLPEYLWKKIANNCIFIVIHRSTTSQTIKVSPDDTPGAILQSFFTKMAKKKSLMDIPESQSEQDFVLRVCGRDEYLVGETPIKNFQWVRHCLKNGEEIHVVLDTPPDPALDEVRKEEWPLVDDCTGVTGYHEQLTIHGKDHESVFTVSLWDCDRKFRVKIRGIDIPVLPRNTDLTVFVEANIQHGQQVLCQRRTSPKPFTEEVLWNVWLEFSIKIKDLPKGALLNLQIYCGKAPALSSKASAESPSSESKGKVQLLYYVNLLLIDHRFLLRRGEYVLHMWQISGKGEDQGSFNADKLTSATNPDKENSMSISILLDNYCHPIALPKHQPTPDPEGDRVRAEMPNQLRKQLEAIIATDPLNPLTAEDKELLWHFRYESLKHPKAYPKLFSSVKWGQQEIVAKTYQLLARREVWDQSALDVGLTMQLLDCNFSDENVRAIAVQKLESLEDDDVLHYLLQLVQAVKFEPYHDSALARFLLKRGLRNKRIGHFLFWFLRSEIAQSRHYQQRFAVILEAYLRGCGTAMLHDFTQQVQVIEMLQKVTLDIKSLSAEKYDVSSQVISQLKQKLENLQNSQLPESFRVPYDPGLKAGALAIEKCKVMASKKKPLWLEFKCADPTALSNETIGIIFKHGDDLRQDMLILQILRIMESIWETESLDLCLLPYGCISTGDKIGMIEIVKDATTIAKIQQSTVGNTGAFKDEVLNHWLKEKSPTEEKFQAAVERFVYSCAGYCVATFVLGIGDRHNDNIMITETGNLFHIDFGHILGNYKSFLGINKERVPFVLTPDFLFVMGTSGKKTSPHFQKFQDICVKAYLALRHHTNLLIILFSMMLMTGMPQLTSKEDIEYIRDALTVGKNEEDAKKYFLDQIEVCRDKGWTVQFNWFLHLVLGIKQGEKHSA

SMILES | IC50 [1] [nM] | IC50 [2] [nM] | IC50 [3, 4] [nM] | IC50 ([3]; THP-1 cells) [nM] | IC50 ([3]; THP-1 cells, trifluoroacetate) [nM]
CC(NC(=O)c1c(N)nn2cccnc12)c1cc(Cl)c2c(Cl)ncn2c1N1CCC(C#N)CC1 (racemic) [Example 163, 2-Amino-N-{1-[1,8-dichloro-5-(4-cyanopiperidin-1-yl)imidazo[1,5-a]pyridin-6-yl]ethyl}pyrazolo[1,5-a]pyrimidine-3-carboxamide trifluoroacetate salt] | < 100 | < 100 | < 500 | – | –
CC(NC(=O)c1c(N)nn2cccnc12)c1cc(Cl)c2c(C#N)ncn2c1N1CCS(=O)(=O)CC1 (racemic) [Example 164, 2-Amino-N-{1-[8-chloro-1-cyano-5-(1,1-dioxidothiomorpholin-4-yl)imidazo[1,5-a]pyridin-6-yl]ethyl}pyrazolo[1,5-a]pyrimidine-3-carboxamide trifluoroacetate salt] | < 100 | < 2000 | > 1000 | – | –
CC1CN(c2c(CNC(=O)c3c(N)nn4cccnc34)cc(Cl)c3cncn23)CCS1(=O)=O (racemic) [Example 167, 2-Amino-N-((8-chloro-5-(2-methyl-1,1-dioxidothiomorpholino)imidazo[1,5-a]pyridin-6-yl)methyl)pyrazolo[1,5-a]pyrimidine-3-carboxamide trifluoroacetate salt] | < 100 | < 500 | < 500 | – | –
CC1CN(c2c(CNC(=O)c3c(N)nn4cccnc34)cc(Cl)c3c(Cl)ncn23)CCS1(=O)=O (racemic) [Example 169, 2-Amino-N-((1,8-dichloro-5-(2-methyl-1,1-dioxidothiomorpholino)imidazo[1,5-a]pyridin-6-yl)methyl)pyrazolo[1,5-a]pyrimidine-3-carboxamide trifluoroacetate salt] | < 100 | < 500 | < 500 | – | –
Nc1nn2cccnc2c1C(=O)NC(c1cc(Cl)c2cncn2c1N1CCS(=O)(=O)CC1)C(F)(F)F (racemic) [Example 180, 2-Amino-N-{1-[8-chloro-5-(1,1-dioxidothiomorpholin-4-yl)imidazo[1,5-a]pyridin-6-yl]-2,2,2-trifluoroethyl}pyrazolo[1,5-a]pyrimidine-3-carboxamide trifluoroacetate salt] | < 100 | < 100 | < 500 | – | –
CC(C)C(NC(=O)c1c(N)nn2cccnc12)c1cc(Cl)c2cncn2c1N1CCS(=O)(=O)CC1 (racemic) [Example 181, 2-Amino-N-(1-(8-chloro-5-(1,1-dioxidothiomorpholino)imidazo[1,5-a]pyridin-6-yl)-2-methylpropyl)pyrazolo[1,5-a]pyrimidine-3-carboxamide trifluoroacetate salt] | < 100 | < 100 | < 500 | – | –
Nc1nn2cccnc2c1C(=O)NC(c1cc(Cl)c2cncn2c1N1CCS(=O)(=O)CC1)C1CC1 (racemic) [Example 182, 2-Amino-N-((8-chloro-5-(1,1-dioxidothio-morpholino)imidazo [1,5-a]pyridin-6-yl)(cyclopropyl)methyl)pyrazolo [1,5-a] pyrimidine-3-carboxamide trifluoroacetate salt] | < 100 | < 100 | < 500 | – | –
CCOc1c(C(C)NC(=O)c2c(N)nn3cccnc23)cc(Cl)c2cn[nH]c12 (single isomer, unassigned) [Example 3a, 2-amino-N-[1-(4-chloro-7-ethoxy-1H-indazol-6-yl)ethyl]pyrazolo[1,5-a]pyrimidine-3-carboxamide trifluoroacetate] | < 100 | < 100 | < 500 | – | –
CC(NC(=O)c1c(N)nn2cccnc12)c1cc(Cl)c2cncn2c1N1CCS(=O)(=O)CC1 (single isomer, unassigned) [Example 36A, 2-Amino-N-(1-[8-chloro-5-(1,1-dioxidothiomorpholin-4-yl)imidazo[1,5-a]pyridin-6-yl]ethyl)pyrazolo[1,5-a]pyrimidine-3-carboxamide] | < 100 | < 100 | < 500 | – | –
C[C@H](NC(=O)c1c(N)nn2cccnc12)c1cc(Cl)c2cncn2c1N1CCS(=O)(=O)[C@H](C)C1 [Example 31A, 2-Amino-N-((1S)-1-(8-chloro-5-(2-methyl-1,1-dioxidothiomorpholino)imidazo[1,5-a]pyridin-6-yl)ethyl)pyrazolo[1,5-a]pyrimidine-3-carboxamide trifluoroacetate salt] | < 100 | < 100 | < 500 | – | –

Other lines, results leading:

IC50 [1] [nM] | IC50 [2] [nM] | IC50 [3, 4] [nM] | IC50 ([3]; THP-1 cells) [nM] | IC50 ([3]; THP-1 cells, trifluoroacetate) [nM] | SMILES
< 100 | < 100 | < 500 | – | – | CC(NC(=O)c1c(N)nn2cccnc12)c1cc(Cl)c2cncn2c1N1CCS(=O)(=O)CC1C (single isomer, unassigned) [Example 38A, 2-Amino-N-(1-[8-chloro-5-(3-methyl-1,1-dioxidothiomorpholin-4-yl)imidazo[1,5-a]pyridin-6-yl]ethyl)pyrazolo[1,5-a]pyrimidine-3-carboxamide trifluoroacetate salt]
< 100 | < 100 | < 500 | – | – | CC(NC(=O)c1c(N)nn2cccnc12)c1cc(Cl)c2cncn2c1N1CCCC(F)C1 (single isomer, unassigned) [Example 73A, 2-Amino-N-{1-[8-chloro-5-(3-fluoropiperidin-1-yl)imidazo[1,5-a]pyridin-6-yl]ethyl}pyrazolo[1,5-a]pyrimidine-3-carboxamide]
< 100 | < 100 | – | < 500 | – | CC(NC(=O)c1c(N)nn2cccnc12)c1cc(Cl)c2cncn2c1N1CCCC(F)C1 (single isomer, unassigned) [Example 73B, 2-Amino-N-{1-[8-chloro-5-(3-fluoropiperidin-1-yl)imidazo[1,5-a]pyridin-6-yl]ethyl}pyrazolo[1,5-a]pyrimidine-3-carboxamide]
< 100 | < 100 | < 500 | – | – | CC(NC(=O)c1c(N)nn2cccnc12)c1cc(Cl)c2cncn2c1N1CCCC(C)(O)C1 (single isomer, unassigned) [Example 76A, 2-Amino-N-{1-[8-chloro-5-(3-hydroxy-3-methylpiperidin-1-yl)imidazo[1,5-a]pyridin-6-yl]ethyl}pyrazolo[1,5-a]pyrimidine-3-carboxamide trifluoroacetate]
< 100 | < 500 | – | < 500 | – | CC(NC(=O)c1c(N)nn2cccnc12)c1cc(Cl)c2cncn2c1N1CCCC(C)(O)C1 (single isomer, unassigned) [Example 76B, 2-Amino-N-{1-[8-chloro-5-(3-hydroxy-3-methylpiperidin-1-yl)imidazo[1,5-a]pyridin-6-yl]ethyl}pyrazolo[1,5-a]pyrimidine-3-carboxamide trifluoroacetate]
< 100 | < 500 | < 500 | – | – | CC(NC(=O)c1c(N)nn2cccnc12)c1cc(Cl)c2cncn2c1N1CCCC(C)(C#N)C1 (single isomer, unassigned) [Example 77A, 2-Amino-N-{1-[8-chloro-5-(3-cyano-3-methylpiperidin-1-yl)imidazo[1,5-a]pyridin-6-yl]ethyl}pyrazolo[1,5-a]pyrimidine-3-carboxamide trifluroacetate]
< 100 | < 100 | – | < 500 | – | CC(NC(=O)c1c(N)nn2cccnc12)c1cc(Cl)c2cncn2c1N1CCCC(C)(C#N)C1 (single isomer, unassigned) [Example 77B, 2-Amino-N-{1-[8-chloro-5-(3-cyano-3-methylpiperidin-1-yl)imidazo[1,5-a]pyridin-6-yl]ethyl}pyrazolo[1,5-a]pyrimidinc-3-carboxamide trifluroacetate]
< 100 | < 500 | < 500 | – | – | CC(NC(=O)c1c(N)nn2cccnc12)c1cc(Cl)c2cncn2c1N1CCCC(O)(C(F)(F)F)C1 (single isomer, unassigned) [Example 78A, 2-Amino-N-(1-{8-chloro-5-[3-hydroxy-3-(trifluoromethyl)piperidin-1-yl]imidazo[1,5-a]pyridin-6-yl}ethyl)pyrazolo[1,5-a]pyrimidine-3-carboxamide trifluoroacetate]
< 100 | < 100 | – | < 500 | – | CC(NC(=O)c1c(N)nn2cccnc12)c1cc(Cl)c2cncn2c1N1CCCC(O)(C(F)(F)F)C1 (single isomer, unassigned) [Example 78B, 2-Amino-N-(1-{8-chloro-5-[3-hydroxy-3-(trifluoromethyl)piperidin-1-yl]imidazo[1,5-a]pyridin-6-yl}ethyl)pyrazolo[1,5-a]pyrimidine-3-carboxamide trifluoroacetate]
< 100 | < 500 | < 500 | – | – | CC(NC(=O)c1c(N)nn2cccnc12)c1cc(Cl)c2cn[nH]c2c1N1CCC(O)C1 (single isomer, unassigned) [Example 90B, 2-Amino-N-{1-[4-chloro-7-(3-hydroxypyrrolidin-1-yl)-2H-indazol-6-yl]ethyl}pyrazolo[1,5-a]pyrimidine-3-carboxamide bis(trifluoroacetate)]
< 100 | < 500 | < 1000 | – | – | CNC(=O)C1CCN(c2c(C(C)NC(=O)c3c(N)nn4cccnc34)cc(Cl)c3cn[nH]c23)C1 (single isomer, unassigned) [Example 103A, 2-Amino-N-[1-(4-chloro-7-{3-[(methylamino)carbonyl]pyrrolidin-1-yl}-2H-indazol-6-yl)ethyl]pyrazolo[1,5-a]pyrimidine-3-carboxamide trifluoroacetate]
< 100 | < 500 | – | – | < 500 | CNC(=O)C1CCN(c2c(C(C)NC(=O)c3c(N)nn4cccnc34)cc(Cl)c3cn[nH]c23)C1 (single isomer, unassigned) [Example 103B, 2-Amino-N-[1-(4-chloro-7-{3-[(methylamino)carbonyl]pyrrolidin-1-yl}-2H-indazol-6-yl)ethyl]pyrazolo[1,5-a]pyrimidine-3-carboxamide trifluoroacetate]
